In one data set the test system is splenic immune cells. The data set can be described thus: Cre circRNA LNP transfection of splenic immune cells in Ai9 Cre reporter mice (tdTomato). Type of data set: in vivo. The conditions noted are these: 0.5 mg/kg Cre RNA LNPs i.v., 48 hours. The method, then:
Circular RNAs encoding Cre recombinase (Cre) are encapsulated into lipid nanoparticles as previously described. Female, 6-8 week old B6.Cg-Gt(ROSA)26Sortm9(CAG-tdTomato)Hze/J (Ai9) mice were dosed with lipid nanoparticles at 0.5 mg/kg RNA intravenously. Fluorescent tdTomato protein was transcribed and translated in Ai9 mice upon Cre recombination, meaning circular RNAs have been delivered to and translated in tdTomato+ cells. After 48 hr, mice were euthanized and the spleens were harvested, processed into a single cell suspension, and stained with various fluorophore-conjugated antibodies for immunophenotyping via flow cytometry.
Ai9 mice (B6.Cg-Gt(ROSA)26Sortm9(CAG-tdTomato)Hze/J, female, 6-8 weeks, n=3 per group) were injected i.v. with 0.5 mg/kg Cre circRNA LNPs or PBS. Ai9 mice transcribe and translate the fluorescent reporter tdTomato upon Cre recombination; meaning cells which are tdTomato+ have successfully been transfected with Cre circRNA. […] Flow cytometry was performed using an Attune Nxt Flow Cytometer (Thermo).

A further data set has as its system primary human T cells. The data set can be described thus: FLuc circRNA LNP transfection of activated primary human T cells with or without ApoE3. Type of data set: cell-based. The conditions noted are these: 200 ng RNA/well, 24 hours, 4 donors. The method, then: Primary human T cells from independent donors were stimulated with aCD3/aCD28 and allowed to proliferate for 6 days in the presence of human serum and IL-2. Then, 100,000 cells were plated in a 96 well plate and LNPs containing circRNA coding for Firefly Luciferase (FLuc) were added to the cells at 200 ng RNA/well with or without Apolipoprotein E3 (ApoE3). After 24-hour incubation, luminescence was quantified using the Bright-Glo Luciferase Assay System (Promega) according to manufacturer's instructions and background luminescence from cells not treated with LNPs was subtracted. […] (See Example 70 for LNP formulation procesure, e.g., for 10a-27 (5.7A), 10a-26 (5.7A), 10a-27 (4.5D), and 10a-26 (4.5D) LNPs.)

The subject of the next data set is 1C1C7 cells. The data set can be described thus: Gaussia luciferase expression and stability by IRES in 1C1C7 cells. Conditions: 1C1C7, 24 and 48 hours.

Regarding `CCCCCCCCC(CCCCCC)C(=O)OCCCCCCN(CCCCCCOC(=O)C(CCCCCC)CCCCCCCC)CCCn1ccnc1C` (stereo not drawn) [Lipid 10a-27, ((3-(2-methyl-1H-imidazol-1-yl)propyl)azanediyl)bis(hexane-6,1-diyl) bis(2-hexyldecanoate)], the “tdTomato+ splenic immune cells” value in the data set on splenic immune cells is “transfect significantly more splenic immune cells than those made with Lipid 10a-46”. Further, the Firefly luminescence result with primary human T cells is “generally produced higher luminescence than those containing Lipid 10a-26”.

B1: CK-739 IRES: "the IRES having the sequence of SEQ ID NO: 3282"; "had a long scanning tract" (nucleic acid)
DNA: GTGGCCACGCCCGGGCCACCGATACTTCCCTTCACTCCTTCGGGACTGTTGGGGAGGAACACAACAGGGCTCCCCTGTTTTCCCATTCCTTCCCCCTTTTCCCAACCCCAACCGCCGTATCTGGTGGCGGCAAGACACACGGGTCTTTCCCTCTAAAGCACAATTGTGTGTGTGTCCCAGGTCCTCCTGCGTACGGTGCGGGAGTGCTCCCACCCAACTGTTGTAAGCCTGTCCAACGCGTCGTCCTGGCAAGACTATGACGTCGCATGTTCCGCTGCGGATGCCGACCGGGTAACCGGTTCCCCAGTGTGTGTAGTGCGATCTTCCAGGTCCTCCTGGTTGGCGTTGTCCAGAAACTGCTTCAGGTAAGTGGGGTGTGCCCAATCCCTACAAAGGTTGATTCTTTCACCACCTTAGGAATGCTCCGGAGGTACCCCAGCAACAGCTGGGATCTGACCGGAGGCTAATTGTCTACGGGTGGTGTTTCCTTTTTCTTTTCACACAACTCTACTGCGTACAACTCACTGACTATCCACTTGCTCTGTCACG
modifications: Description of Unknown: CK1.4; Caprine Kobuvirus variant sequence
In the case of B1, the “expression after terminal or scanning tract deletions of the IRES” value in the data set with 1C1C7 cells is listed as “relatively unaffected by deletions in the scanning tract”.
